# Measurements reported in the pKa sets of Baltruschat and Czodrowski (2020).
row,Structure (SMILES),pKa
1,CNC(=O)c1cccc2c(Nc3ccc(NS(C)(=O)=O)cc3OC)c3ccccc3nc12,6.36
2,N[C@H]1C[C@]1(F)c1ccccc1,7.35
3,CNC(=C[N+](=O)[O-])NCCSCc1ccc(CN(C)C)o1,8.47
4,Cc1nc2c(/C=C/Cc3ccccc3)cccn2c1N,6.75
5,c1c[nH]cn1,6.99
6,CC(NCCC(c1ccccc1)c1ccccc1)c1ccccc1 (stereo not drawn),9.04
7,NCCCF,9.9
8,O=C(Nc1ccon1)N1CCN(Cc2cccc(Oc3ccc(Cl)cc3)c2)CC1,-2.97
9,COc1cc(NS(C)(=O)=O)ccc1Nc1c2ccccc2nc2cc(Br)ccc12,6.84
10,CCC1(CCC(C)C)C(=O)N=C(O)NC1=O (stereo not drawn),7.8
11,c1ccc(-c2ncc[nH]2)nc1,5.36
12,CN(C)CCCN1c2ccccc2Sc2ccccc21,9.4
13,Cc1cnc(NCCc2ccccc2)c(=O)n1CC(=O)NCc1cnc(N)cn1,2.7
14,Cc1ncc2n1-c1ccc(Cl)cc1C(c1ccccc1F)=NC2,5.44
15,Cc1ccc(NS(=O)(=O)Cc2ccccc2)c(=O)n1CC(=O)NC[C@@H]1CNC(N)=N[C@@H]1C,14
16,CS(=O)(=O)Nc1ccc(Nc2c3ccccc3nc3cc(S(C)(=O)=O)ccc23)cc1,5.65
17,Cn1ccnc1[N+](=O)[O-],0.48
18,Cc1nc2c(OCc3ccccc3)nccn2c1N,4.6
19,CCCCCCOC(=O)c1ccc(OS(N)(=O)=O)cc1,8.52
20,Oc1ccccc1Nc1c2ccccc2nc2ccccc12,7.8

row,Structure (SMILES),pKa
1,Cc1cccc(C)c1N=C1NCCN1,10.5
2,c1ccc(CN2CCN(CCCc3c[nH]c4ccc(-n5cnnc5)cc34)CC2)cc1,8.2
3,Nc1ccc(Nc2c3ccccc3nc3ccccc23)cc1,8.36
4,CCCCOC(=O)c1ccc(OS(N)(=O)=O)cc1,8.07
5,CNC(=C[N+](=O)[O-])NCCSCc1csc(CN(C)C)n1,6.59
6,CC(=O)N1CCN(c2ccc(OCC3COC(Cn4ccnc4)(c4ccc(Cl)cc4Cl)O3)cc2)CC1 (stereo not drawn),5.41
7,COc1cc(NS(C)(=O)=O)ccc1Nc1c2ccccc2nc2cc([N+](=O)[O-])ccc12,5.72
8,O=C(c1ccc(Cl)cc1)c1ccc(OC2CN3CCC2CC3)cc1 (stereo not drawn),9.1
9,CS(=O)(=O)Nc1ccc(Nc2c3ccccc3nc3ccc(Cl)cc23)cc1,6.42
10,O=S(=O)(c1cccc(F)c1)c1ccc2c3c(oc2c1)C1(CCCOC1)NCC3 (stereo not drawn),7.5
11,O=[N+]([O-])c1cc(Cl)c(N=C2NCCN2)c(Cl)c1,6.86
12,CC1=NS(=O)(=O)c2cc(Cl)ccc2N1,8.62
13,CCC12CCC(=O)C=C1c1c(cc(OCC(=O)OC(C)(C)C(=O)O)c(Cl)c1Cl)C2 (stereo not drawn),3.8
14,COc1cc(NS(C)(=O)=O)ccc1Nc1c2ccccc2nc2c(C(=O)NCC(O)CO)cccc12 (stereo not drawn),6.34
15,O=C(O)[C@H]1O[C@@H](O)[C@H](O)[C@@H](O)[C@@H]1O,3.2
16,COc1cc(NS(C)(=O)=O)ccc1Nc1c2ccccc2nc2c(OC)cccc12,7.39
17,COc1ccnc(C[S+]([O-])c2nc3cc(OC(F)F)ccc3[n-]2)c1OC.[Na+] (stereo not drawn),3.9
18,Nc1ccc(S(=O)(=O)Nc2ccc(Nc3c4ccccc4nc4ccccc34)cc2)cc1,7.15
19,c1ccc(NC2=NCCN2)cc1,10.1
20,CS(=O)(=O)Nc1ccc(Nc2c3ccccc3nc3ccncc23)cc1,5.73

row,Structure (SMILES),pKa
1,Brc1ncc[nH]1,3.79
2,Cc1nc(N)nc(C)c1CNC(=O)Cn1c(C)ccc(NS(=O)(=O)Cc2ccccc2)c1=O,4.7
3,CO/N=C(\C#N)C1CN2CCC1CC2 (stereo not drawn),8.96
4,COc1cccc(S(=O)(=O)Nc2cccn(CC(=O)NCc3ccc(C(=N)N)cc3)c2=O)c1,10.2
5,CCC12CCC(=O)C=C1c1c(cc(OCC(=O)OCC(=O)O)c(Cl)c1Cl)C2 (stereo not drawn),3.8
6,COc1ccc2c3c1O[C@H]1[C@@H](O)C=C[C@H]4[C@@H](C2)N(C)CC[C@@]341,8.2
7,O=C(c1ccccc1)c1ccc2n1CCC2C(=O)O (stereo not drawn),3.5
8,NC(=O)c1ccc(Nc2c3ccccc3nc3ccccc23)cc1,6.47
9,NS(=O)(=O)c1ccc(Nc2c3ccccc3nc3ccccc23)cc1,6.11
10,CN(C)C(=O)C1=C(C(=O)N(C)C)C2c3ccccc3C1c1ccccc12,-2.68
11,CC(=O)N[C@@H](Cc1cc(F)cc(F)c1)[C@H](O)CNC1(c2cccc(C(C)(C)C)c2)CCCCC1,8.1
12,Cc1ccc(C(=O)c2ccc(CC(=O)O)n2C)cc1,3.5
13,CC(C)Oc1ncc(-c2nc(-c3cccc4c3OCCNC4CCCC(=O)O)no2)cc1Cl (stereo not drawn),7.98
14,BP(=O)(OC[C@H]1O[C@@H](n2cnc3c(N)ncnc32)[C@H](O)[C@@H]1O)OP(=O)(O)CP(=O)(O)O (stereo partly drawn),8.4
15,O=[N+]([O-])c1ccc(Nc2c3ccccc3nc3ccccc23)cc1,5.58
16,NS(=O)(=O)Cc1ccc(Nc2c3ccccc3nc3ccccc23)cc1,7.05
17,O=C(NCC1CCCCN1)c1cc(OCC(F)(F)F)ccc1OCC(F)(F)F (stereo not drawn),9.3
18,BP(=O)(OC[C@H]1O[C@@H](n2cnc3c(N)nc(SC)nc32)[C@H](O)[C@@H]1O)OP(=O)(O)C(Cl)(Cl)P(=O)(O)O (stereo partly drawn),7
